According to patent US20100016300A1, “Imidazoacridine Compounds for Treating FLT3-Mediated Disorders” (priority 2006, published 2010):
Numbering of substitutions follows the chain as printed. Read-outs that look alike come from different tables or passages of the source. Blank lines part the entries; values can stand above or below the compound they belong to.

How the values were obtained:
FGFR2 = molecular target: T1, FGFR2 (Homo sapiens, UniProt P21802); assay: SelectScreen in vitro kinase screen, FGFR2; assay type: biochemical
T1 construct: the juxtamembrane, ATP and catalytic components projecting from the cell membrane into the cytosol have been expressed through recombinant genetic techniques; purchased Invitrogen, Inc. (SelectScreen platform)
From the text: (§1) The IC50 value is, therefore, a measure of potency. Another important feature is specificity.

NTRK1 = NTRK1 (Homo sapiens, UniProt P04629); assay: Kinase selectivity analysis (FIG. 4A), NTRK1; assay type: biochemical; settings: in words
From the text: as §1

PDGFRb = PDGFRb (Homo sapiens, UniProt P09619); assay: Kinase selectivity analysis (FIG. 4A), PDGFRb; assay type: biochemical; settings: in words
Experimental: (§2) Testing of the compounds described in this invention was carried out using the SelectScreen™ platform from Invitrogen, Inc. (Carlsbad, Calif., USA) and the details of its performance are readily viewed via the web by linking to: http://www.invitrogen.com/downloads/SelectScm_Brochure.pdf.
(§3) Briefly the approach is based on treating each specific kinase with a unique substrate and optical reporter system in the presence of ATP at 100 micromolar or at the apparent optimal ATP concentration for each kinase. In controls, the substrate is phosphorylated and a baseline optimal response is recorded. Graded amounts of putative inhibitor are then added in separate increments to generate a dose response curve. The latter is obtained by fitting to a sigmoid saturation equation, such as the Hill equation, and the concentration of test article producing 50 per cent inhibition is then noted as the IC50. […] The IC50 value is, therefore, a measure of potency. Another important feature is specificity. It is considered a desirable property when claiming efficacy to determine how many kinases are inhibited by the same molecule. The fewer number inhibited points toward specificity; the greater to inhibitory promiscuity.
(§4) First the compounds of this invention were tested against a subset, the primary kinase screen, to determine initial activity at 1 and 0.1 micromolar concentrations.

PKC = assay: Kinase selectivity analysis (FIG. 4A), PKC; assay type: biochemical; settings: in words
Experimental: as §2, §3, §4

FLT3 [1] = molecular target: T2, FLT3 (Homo sapiens, UniProt P36888); assay: SelectScreen in vitro kinase screen, FLT3 (Example 2); assay type: biochemical; settings: for activity against FLT3: in words
T2 construct: the juxtamembrane, ATP and catalytic components projecting from the cell membrane into the cytosol have been expressed through recombinant genetic techniques; purchased Invitrogen, Inc. (SelectScreen platform)
T2 sequence (P36888 564-993 limits assumed): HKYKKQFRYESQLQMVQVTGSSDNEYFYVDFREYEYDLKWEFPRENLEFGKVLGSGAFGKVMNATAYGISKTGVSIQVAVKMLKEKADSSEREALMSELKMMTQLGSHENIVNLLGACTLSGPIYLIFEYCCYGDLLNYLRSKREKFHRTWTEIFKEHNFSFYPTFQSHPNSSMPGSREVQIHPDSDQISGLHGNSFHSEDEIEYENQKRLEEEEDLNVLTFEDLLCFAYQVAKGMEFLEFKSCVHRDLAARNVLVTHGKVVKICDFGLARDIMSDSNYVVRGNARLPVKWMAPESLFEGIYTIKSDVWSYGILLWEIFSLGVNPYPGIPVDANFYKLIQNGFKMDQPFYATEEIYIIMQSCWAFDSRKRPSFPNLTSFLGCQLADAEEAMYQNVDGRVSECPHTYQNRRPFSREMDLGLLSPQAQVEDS
From the text: as §1

all the other RTK's = assay: SelectScreen in vitro kinase screen, other RTK and TK enzymes; assay type: biochemical; settings: read-out: IC50 against all the other RTK's
From the text: as §1

FLT3 D835Y = molecular target: T3, FLT3 D835Y (Homo sapiens, UniProt P36888, D835Y); assay: SelectScreen in vitro kinase screen, FLT3 mutant; assay type: biochemical; settings: in words
T3 construct: the juxtamembrane, ATP and catalytic components projecting from the cell membrane into the cytosol have been expressed through recombinant genetic techniques; purchased Invitrogen, Inc. (SelectScreen platform)
T3 sequence (P36888 564-993 D835Y limits assumed): T2 sequence (P36888 564-993 limits assumed) with D272Y
From the text: as §1

[2] = system: KDR, PDGF and TRK members of the RTK family; assay: SelectScreen in vitro kinase screen, closely related RTKs; assay type: biochemical; settings: in words, relative to FLT3
From the text: as §1

RS4(11) cells = assay: Cell viability in RS4(11) cells; assay type: cell-based, human
From the text: (§5) It is now understood that an important subset of human myeloid leukemia cells overexpress FLT3 as constitutively activated mutations. The most prevalent of these is the internal tandem duplication. Two cell lines commonly used to test the potency of FLT3 inhibitors on cell growth and viability are the RS4(11) and MV4(11). The RS4(11) cell line, also known as RS4;11, was established from a bone marrow patient with acute lymphoblastic leukemia. This patient was […]. The cells lack surface and cytoplasmic immunoglobulin, and are negative for CD10. The cells have a characteristic chromosome translocation (4;11)(q21;q23), and an isochromosome for the long arm of chromosome 7. These cells express the wild-type FLT3 receptor and are further characterized by expression of the MHC Class II antigens (HLA DR+); CD9+; CD24+. The MV4(11) cell line, also known as MV-4-11, was established from the blast cells of a person with biphenotypic B myelomonocytic leukemia (ATCC). Other sources indicate this cell line is derived from acute monocytic leukemia (AML FAB M5). […] These cells express a mutant form of FLT3 containing an internal tandem duplication (ITD), and are further characterized by expression of CD4 (40-96%); CD10 (4-11%); CD15 (96-99%). […]

MV4(11) cells = assay: Cell viability in MV4(11) cells; assay type: cell-based, human; settings: FLT3 ITD, compared with PKC412
From the text: as §5

[3] = system: Experimental Autoimmune Encephalomyelitis (EAE); assay: Experimental autoimmune encephalomyelitis (EAE) in mice; assay type: in vivo, C57BL/6 mice; settings: oral, from day 5: 10 mg/kg every 24 hrs, 20 mg/kg every 48 hrs, 30 mg/kg every 72 hrs; versus vehicle controls
Experimental: The EAE preparation used to test the efficacy of the imidazoacridinone analogs of the present invention followed a similar protocol as described by Small et al. (Patent Application WO 2006/020145 A2, 23 Feb. 2006) and was conducted by MD Biosciences, a contract research organization that provides in vivo and in vitro disease models as well as mode of action studies for general inflammatory screening, arthritis, IBD, and multiple sclerosis. C57BL/6 mice were immunized with proteolipid protein emulsified in Complete Freund's Adjuvant on day 0 of the study. After a booster with pertussis toxin also on day 0 and then on day 2, the mice were treated on day 5 after disease induction with three oral dosing schedules of XF-2, at 10 mg/kg every 24 hrs, 20 mg/kg every 48 hrs and 30 mg/kg every 72 hrs.

HL-60 leukemia = assay: Growth arrest in HL-60 leukemia; settings: Homo sapiens, HL-60, read-out: EC50 growth arrest
Experimental: When standard protocols for adherent cell culture are followed, according to the instructions supplied by the American Type Culture Collection for the two line, the cell will proliferate with an approximate 30 hour doubling time.

FLT3 [4] = molecular target: T2, FLT3; assay: SelectScreen in vitro dose response assay against FLT3 (Example 7); assay type: biochemical; settings: ATP at 100 micromolar; 4 parameter Hill equation
Experimental: The terms “IC50” and “EC50” are used interchangeably. As used herein, “EC50” refers to nMolar concentration at median percent inhibition determined by dose respose (DR) assay. As used herein, the term “E1000” refers to percent inhibition at 1000 nMolar determined by assay. EC50 was calculated based on dose response curve was fitted to 4 parameter Hill equation.
The compounds were then re-tested by adding graded amounts of putative inhibitor which were added in 5 separate increments to generate a dose response curve. The latter is obtained by fitting to a 4 parameter Hill equation, a sigmoid saturation equation.
The 2× FLT3/Tyr 02 peptide mixture was prepared in 50 mM HEPES pH 7.5, 0.01 BRIJ-35, 10 mM MgCl2, 1 mM EGTA. The final 10 uL kinase reaction consists of 0.6-76.0 ng FLT3 and 2 uM Tyr 02 peptide in 50 mM HEPES pH 7.5, 0.01% BRIJ-35, 10 mM Mg Cl2, 1 mM EGTA. After 1 hour kinase reaction incubation, 5 uL of a 1:64 dilution of development reagent A was added.

[5] = read-out: IC50 as FLT3 inhibitors (FIG. 3)

T1 sequence (P21802 399-821 limits assumed): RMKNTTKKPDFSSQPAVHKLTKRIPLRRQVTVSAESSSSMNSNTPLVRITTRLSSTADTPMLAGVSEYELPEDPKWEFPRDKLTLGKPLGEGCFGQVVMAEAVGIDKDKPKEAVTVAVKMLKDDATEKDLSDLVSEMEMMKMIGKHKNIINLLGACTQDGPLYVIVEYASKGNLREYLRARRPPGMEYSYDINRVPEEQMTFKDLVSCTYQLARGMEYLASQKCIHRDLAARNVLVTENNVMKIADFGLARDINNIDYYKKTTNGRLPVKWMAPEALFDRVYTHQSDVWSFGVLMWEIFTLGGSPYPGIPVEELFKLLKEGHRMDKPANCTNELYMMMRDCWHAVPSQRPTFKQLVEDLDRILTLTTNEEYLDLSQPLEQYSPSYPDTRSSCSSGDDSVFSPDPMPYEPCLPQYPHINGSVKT
Sequence of PDGFRb (P09619 33-1106): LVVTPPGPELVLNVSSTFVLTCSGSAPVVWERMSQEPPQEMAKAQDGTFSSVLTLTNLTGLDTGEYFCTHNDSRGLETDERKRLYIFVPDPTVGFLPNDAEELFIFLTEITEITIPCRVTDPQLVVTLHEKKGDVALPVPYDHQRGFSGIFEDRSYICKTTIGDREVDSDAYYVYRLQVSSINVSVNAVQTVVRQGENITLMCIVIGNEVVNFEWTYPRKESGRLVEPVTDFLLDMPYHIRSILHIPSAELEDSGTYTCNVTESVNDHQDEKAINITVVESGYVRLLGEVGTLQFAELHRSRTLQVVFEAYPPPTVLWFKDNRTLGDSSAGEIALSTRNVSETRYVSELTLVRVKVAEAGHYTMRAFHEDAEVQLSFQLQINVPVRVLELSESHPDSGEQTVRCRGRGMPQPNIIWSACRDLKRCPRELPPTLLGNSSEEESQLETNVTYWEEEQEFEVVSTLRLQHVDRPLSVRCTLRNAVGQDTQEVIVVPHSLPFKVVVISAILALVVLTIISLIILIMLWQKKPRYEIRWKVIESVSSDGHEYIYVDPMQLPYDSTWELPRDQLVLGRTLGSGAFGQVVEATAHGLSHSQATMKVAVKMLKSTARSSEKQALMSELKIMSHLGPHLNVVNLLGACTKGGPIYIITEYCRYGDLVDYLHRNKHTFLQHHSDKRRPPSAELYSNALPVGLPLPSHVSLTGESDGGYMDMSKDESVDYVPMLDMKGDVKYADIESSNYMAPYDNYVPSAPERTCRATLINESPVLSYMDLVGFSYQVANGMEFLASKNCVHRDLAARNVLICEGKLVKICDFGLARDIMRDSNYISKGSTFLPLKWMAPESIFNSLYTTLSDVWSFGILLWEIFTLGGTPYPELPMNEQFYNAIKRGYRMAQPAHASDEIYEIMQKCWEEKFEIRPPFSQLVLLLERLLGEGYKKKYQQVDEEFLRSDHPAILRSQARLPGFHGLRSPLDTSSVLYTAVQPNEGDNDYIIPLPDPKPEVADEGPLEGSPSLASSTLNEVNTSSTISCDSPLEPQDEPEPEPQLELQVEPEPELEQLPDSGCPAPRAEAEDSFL
Sequence of NTRK1 (P04629 33-796): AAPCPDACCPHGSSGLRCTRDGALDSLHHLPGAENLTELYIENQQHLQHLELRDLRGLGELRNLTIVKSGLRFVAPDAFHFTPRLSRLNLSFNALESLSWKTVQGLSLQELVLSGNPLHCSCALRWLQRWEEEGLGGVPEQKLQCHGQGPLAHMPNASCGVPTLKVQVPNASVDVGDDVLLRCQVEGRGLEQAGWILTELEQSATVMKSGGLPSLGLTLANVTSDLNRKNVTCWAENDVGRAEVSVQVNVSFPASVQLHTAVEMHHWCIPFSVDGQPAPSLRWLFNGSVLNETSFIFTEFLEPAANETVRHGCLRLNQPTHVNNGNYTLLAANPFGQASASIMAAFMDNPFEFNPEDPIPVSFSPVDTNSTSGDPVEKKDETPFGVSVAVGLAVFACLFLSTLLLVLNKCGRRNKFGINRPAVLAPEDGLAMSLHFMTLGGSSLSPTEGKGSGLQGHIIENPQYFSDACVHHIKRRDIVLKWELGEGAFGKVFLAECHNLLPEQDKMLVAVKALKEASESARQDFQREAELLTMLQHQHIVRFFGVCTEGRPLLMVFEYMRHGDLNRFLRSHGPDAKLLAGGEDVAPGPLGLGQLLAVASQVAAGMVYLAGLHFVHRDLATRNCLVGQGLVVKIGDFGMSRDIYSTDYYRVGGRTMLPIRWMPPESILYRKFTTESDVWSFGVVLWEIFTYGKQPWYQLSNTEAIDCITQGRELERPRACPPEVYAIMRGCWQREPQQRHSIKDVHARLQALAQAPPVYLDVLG

SMILES: C[C@]12O[C@H](C[C@]1(O)CO)n1c3ccccc3c3c4c(c5c6ccccc6n2c5c31)CNC4=O [CEP-701, reference compound]
inhibition of FGFR2 (FGFR2; in words, FIG. 4A): inhibits | inhibition of NTRK1 (NTRK1): inhibits

SMILES: CO[C@@H]1[C@H](N(C)C(=O)c2ccccc2)C[C@H]2O[C@]1(C)n1c3ccccc3c3c4c(c5c6ccccc6n2c5c31)C(=O)NC4 [PKC-412]
cross-reaction with PDGFRb (PDGFRb): cross-reacts | cross-reaction with PKC (PKC): cross-reacts

SMILES: CCN(CC)CCNc1ccc2ncn3c4ccc(O)cc4c(=O)c1c23 [XF-2]
activity against FLT3 (FLT3 [1]): active | IC50 (FLT3 [1]; read-out: IC50 against FLT3): ~0.01 µM | IC50 (FLT3 [1]; [5]): 0.008 µM | drop of inhibitory activity on FGFR2 relative to FLT3, in EC50 value (FGFR2; FGFR2 versus FLT3): 100 fold | IC50 (FGFR2; read-out: IC50 against FGFR2): > 2 µM | IC50 (all the other RTK's): > 5 µM | activity against FLT3 mutant form (FLT3 D835Y): active | inhibitory activity against KDR, PDGF and TRK members of the RTK family [2]: many fold less pronounced | EC50 (RS4(11) cells; Homo sapiens, read-out: effective concentration to decrement cell viability by 50% (EC50), 72 hrs of continuous exposure): 0.034 µM | cell viability potency, in words (MV4(11) cells): closely matched | clinical scores [3]: lower clinical scores | EC50 (HL-60 leukemia): > 10 µM

activity against FLT3 (FLT3 [1]): active | IC50 (FLT3 [1]; [5]): 0.012 µM | activity against FLT3 mutant form (FLT3 D835Y): active | inhibitory activity against KDR, PDGF and TRK members of the RTK family [2]: many fold less pronounced | EC50 cell viability, in words (RS4(11) cells; 72 hrs, compared with PKC-412): closer to the micromolar mark | EC50 (HL-60 leukemia): > 10 µM
SMILES: O=c1c2cc(O)ccc2n2cnc3ccc(NCCN4CCOCC4)c1c32 [XF-22]
cell viability potency, in words (MV4(11) cells): less activity

EC50 (FLT3 [4]): 0.025 µM
SMILES: CN(C)CCNc1ccc2ncn3c4ccc(O)cc4c(=O)c1c23 [XF-0025]

activity against FLT3 (FLT3 [1]): active | activity against FLT3 mutant form (FLT3 D835Y): active | inhibitory activity against KDR, PDGF and TRK members of the RTK family [2]: many fold less pronounced | EC50 (FLT3 [4]): 0.05 µM
SMILES: O=c1c2cc(O)ccc2n2cnc3ccc(NCCCN4CCOCC4)c1c32 [XF-0113]

SMILES: O=c1c2c(NCCN3CCOCC3)ccc3ncn(c4ccc5[nH]ncc5c14)c32 [XF-0122]
EC50 (FLT3 [4]): 0.051 µM

EC50 (FLT3 [4]): 0.05 µM
SMILES: O=c1c2cc(O)ccc2n2cnc3ccc(NCCN4CCCC4)c1c32 [XF-0241]

EC50 (FLT3 [4]): 0.133 µM
SMILES: CN(C)CCNc1ccc2ncn3c4ccccc4c(=O)c1c23 [XF-0308]

EC50 (FLT3 [4]): 0.135 µM
SMILES: O=c1c2ccccc2n2cnc3ccc(NCCNCCO)c1c32 [XF-0328]
